Laboratory results reported in patent publication US6541490B1, “Bipyridine manganese complexes” (Eukarion, Inc., priority 1998, dated 2003).

Columns and labels:
Assay type in all cases: biochemical
[1] = Superoxide dismutase (SOD) assay: xanthene oxidase/hypoxanthene, XTT reduction; conditions: SOD activity from IC50 of XTT reduction (one International Unit), normalised; 0.05M Tris/HCl pH 7.4, 25° C.
Method: This method is adapted from what has become the standard method for the measurement of SOD activity (McCord J. M., Fridovich, I., J. Biol. Chem. 244, 6049-6055, 1969). Briefly, a steady-state production of superoxide anion was maintained by the action of xanthene oxidase (XO) on hypoxanthene (HX) at physiological pH. Presence of the anion was measured by the reduction of XTT (3′-{1-(phenylamino)-carbonyl]-3,4-tetrazolium]-bis(4-methoxy-6-nitro)benzsulphonic acid to a water-soluble product with an absorbance maximum at ˜470 nm. Hypoxanthene concentrations were titrated so as to give a steady-state rate of XTT reduction of 0.025 Optical Density Units (OD) per minute at 25° C.
(§1) The assays for compound antioxidant activity were carried out in 96-well microtitre plates using a DIAS modular assay robot instrument (Dynatech Ltd.) Compounds were solublised in DMF at 10 mM. DMF concentrations in the assay never exceeded 1%, were tolerated and were controlled for in assay plates.
Xanthene oxidase (Sigma X1875) 0.01 U/ml and XTT (Sigma X4251), 0.5 mM and hypoxanthene (Sigma H9377), typically at […], were incubated in the presence of various doses of compounds at 25° C. in 0.05M Tris/HCI pH 7.4. Rates of XTT reduction were measured over 5 minutes at 490 nm. Dose-response curves were constructed for inhibition by the compound of control rates of XTT reduction. […]

[2] = Peroxidase (POD) assay: hydrogen peroxide removal with hydrogen donor ABTS; conditions: ABTS 3 mM, 0.05M Tris HCl pH 7.4, 25° C., 2 minutes, interpolated against horseradish peroxidase standard curve
Method: This method measures the ability of the compounds to remove hydrogen peroxide in the presence of the hydrogen donor 2,2′-azino-di-[3-ethyl-benzothiazoline-(6)-sulphonic acid (ABTS) (Galati, H., J. Clin. Chem. Clin. Biochem. (1979) 17, 1-7).
as §1
ABTS (Sigma A-1888) 3 mM was incubated with various concentrations of compound in 0.05M Tris HCI pH 7.4 at 25° C. A range of standard concentrations of horseradish peroxidase (Sigma P-6140) were included on each microtitre plate. Hydrogen peroxide (Sigma H1009) 100 mM was added and the plate incubated at 25° C. for 2 minutes. Absorbance at 405 nm was measured and the rates of ABTS […] calculated. A standard curve was constructed using data from wells containing known concentrations of peroxidase. Data for wells containing compound were interpolated against this curve using the software tools Excel (Microsoft Corp.) and Xlfit (ID Business Solutions). Estimations of peroxidase activity were given as International Units of peroxidase activity/mmol compound.

[3] = Catalase (CAT) assay: removal of hydrogen peroxide, HRP/ABTS read-out; conditions: amount of hydrogen peroxide removed per minute, per mmol of compound; 0.05M Tris HCl pH 7.4, 25° C., 60 mins
From the text: This method measures catalase activity as the ability to remove hydrogen peroxide from solution in the absence of hydrogen donors over one hour. After this time any remaining peroxide was removed by introduction to the mixture of high concentrations of horseradish peroxidase and the hydrogen donor 2,2′-azino-di-[3-ethyl-benzothiazoline-(6)-sulphonic acid (ABTS). This rapid reaction produces peroxide-concentration-dependant product with a maximal absorbance at 405 nm.
as §1
Hydrogen peroxide (Sigma H1009) 100 mM was incubated with various concentrations of compound in 0.05M Tris HCI pH 7.4 at 25° C. for 60 mins. […] Plates were then read for absorbance at 405 nm. A standard curve for absorbance against known hydrogen peroxide concentration was constructed. Absorbance data for wells containing compound were interpolated against this curve using the software tools Excel (Microsoft Corp.) and Xlfit (ID Business Solutions). […]
The catalase assay procedure described above provides certain advantages over previously described assays. […] The oxidation of ABTS results in a colour change which can be measured. […]

Structure (SMILES): CCCCCCc1cccc2c1[O][Mn]([O]C(C)=O)[O]c1c(CCCCCC)cccc1-c1cccc(n1)-c1cccc-2n1 [Example 18, 6,6′-bis(3-Hexyl-2-hydroxyphenyl)-2,2′-bipyridine-manganese(III)acetate]
- SOD [1]: 41.43 U/mmol compound
- POD [2]: 209.92 International Units of peroxidase activity/mmol compound
- CAT [3]: 0.0083
